# Assay results from US7071165B2, “LHRH antagonist peptides” (Indiana University Research and Technology Corporation, priority 1995, dated 2006).
# Tested on: ovulation in female rats
# Assay: Anti-ovulatory activity (AOA) in vivo assay in rats
# Set-up: species or system rat
# Details: dose 1 μg per rat
# Description: As used herein, “LHRH antagonist peptide” is intended to include peptides and peptide analogs which inhibit LHRH activity (i.e., has “LHRH antagonist activity”) in vivo or in vitro. Candidate LHRH antagonist peptides can be assayed, for example, in the animal model described in Corbin and Beattie, Endocrine Res. Commun. 2:1 (1975) (and see infra). In this assay, the LHRH antagonistic activity of a candidate compound is assayed by measuring the antiovulatory activity (AOA) of the compound in rats.
# Anti-ovulatory activity (AOA) was measured by an in vivo assay in rats, as described in Corbin and Beattie, Endocrine Res. Commun. 2:1 (1975). In brief, female rats are injected with a candidate LHRH antagonist on the day of proestrus; in general, the candidate LHRH antagonist was dissolved in 0.1% DMSO. The ability of the candidate peptide to inhibit ovulation is measured by determining the number of rats which ovulate. A candidate peptide is considered to have LHRH antagonist qualities if it inhibits ovulation in at least 50% of the treated rats at a dose of 5 μg per rat. Preferred LHRH antagonists inhibit ovulation in at least 50% of rats at a dose of 2 μg per rat, more preferably at a dose of […], and still more preferably at a dose of 0.5 μg per rat.
row,Substance,AO activity (AOA): rats which ovulate / rats treated
1,"Ac-D-Nal^1, 4-Cl-D-Phe^2, D-Pal^3, D-Lys(iPr)^5, D-Lys(TFAc)^6, Lys(iPr)^8, D-Ala^10-LHRH.2TFA [Compound 3753]",7/8@1.0
2,"Ac-D-Nal^1, 4-Cl-D-Phe^2, D-Pal^3, D-Lys(iPrNic)^5, D-Lys(iPrNic)^6, Lys(iPr)^8, D-Ala^10-LHRH.TFA [Compound 3553]",8/8@1 μg
3,"Ac-D-Nal^1, 4-Cl-D-Phe^2, D-Pal^3, D-Lys^6, Lys(iPr)^8, D-Ala^10-LHRH.TFA [Compound 3505]",5/8@1 μg
4,"Ac-D-Nal^1, 4-Cl-D-Phe^2, D-Pal^3, D-Met(S^+CH2COPh)^6, D-Ala^10-LHRH.2TFA [Compound 3968]",4/8@1.00
5,"Ac-D-Nal^1, 4-Cl-D-Phe^2, D-Pal^3, D-Met(S^+Me)^6, Met(S^+Me)^8, D-Ala^10-LHRH.2TFA [Compound 4016]",6/8@1.00
6,"Ac-D-Nal^1, 4-Cl-D-Phe^2, D-Pal^3, D-Orn(COCH2S^+Me2)^6, D-Ala^10-LHRH.2TFA [Compound 4013]",0/8@1.00
7,"Ac-D-Nal^1, 4-Cl-D-Phe^2, D-Pal^3, D-Pal(1-Bu)^6, Lys(iPr)^8, D-Ala^10-LHRH.TFA [Compound 3428]",1/8@1 μg
8,"Ac-D-Nal^1, 4-Cl-D-Phe^2, D-Pal^3, D-Pal(CH2COOH)^6, Lys(iPr)^8, D-Ala^10-LHRH.TFA [Compound 3770]",6/8@1.0
9,"Ac-D-Nal^1, 4-Cl-D-Phe^2, D-Pal^3, D-Pal(N—O)^6, Lys(iPr)^8, D-Ala^10-LHRH.TFA [Compound 3786]",4/8@1.0
10,"Ac-D-Nal^1, 4-Cl-D-Phe^2, D-Pal^3, His^5D-Pal(iPr)^6, Lys(iPr)^8, D-Ala^10-LHRH.2TFA [Compound 3754]",5/8@1.0
11,"Ac-D-Nal^1, 4-Cl-D-Phe^2, D-Pal^3, Lys(CNa)^5, D-Lys(CNa)^6, Lys(iPr)^8, D-Ala^10-LHRH.2TFA [Compound 3551]",6/8@1 μg
12,"Ac-D-Nal^1, 4-Cl-D-Phe^2, D-Pal^3, Lys(ClNic)^5, D-Lys(ClNic)^6, Lys(iPr)^8, D-Ala^10-LHRH.2TFA [Compound 3544]",6/8@1 μg
13,"Ac-D-Nal^1, 4-Cl-D-Phe^2, D-Pal^3, Lys(Nic)^5, D-Pal(Bzl)^6, Lys(iPr)^8, D-Ala^10-LHRH.3TFA [Compound 3547]",6/8@1 μg
14,"Ac-D-Nal^1, 4-Cl-D-Phe^2, D-Pal^3, Lys(ONic)^5, D-Lys(ONic)^6, Lys(iPr)^8, D-Ala^10-LHRH.TFA [Compound 3503]",6/8@1 μg
15,"Ac-D-Nal^1, 4-Cl-D-Phe^2, D-Pal^3, Lys(Otac)^5, D-Lys(Otac)^6, Lys(iPr)^8, D-Ala^10-LHRH.TFA [Compound 3502]",6/8@1 μg
16,"Ac-D-Nal^1, 4-Cl-D-Phe^2, D-Pal^3, Lys(Pyz)^5, D-Lys(Pyz)^6, Lys(iPr)^8, D-Ala^10-LHRH.TFA [Compound 3504]",4/8@1 μg
17,"Ac-D-Nal^1, 4-Cl-D-Phe^2, D-Pal^3, Lys(TFAc)^6, Lys(iPr)^8, D-Ala^10-LHRH.2TFA [Compound 3546]",6/8@1 μg
18,"Ac-D-Nal^1, 4-Cl-D-Phe^2, D-Pal^3, Lys(iPr)^5, D-Lys(4HBc)^6, Lys(iPr)^8, D-Ala^10-LHRH.2TFA [Compound 3745]",6/8@1.0
19,"Ac-D-Nal^1, 4-Cl-D-Phe^2, D-Pal^3, Lys(iPr)^5, D-Trp^6, Trp^7,Orn^8, D-Ala^10-LHRH.TFA [Compound 3855]",4/8@1.0
20,"Ac-D-Nal^1, 4-Cl-D-Phe^2, D-Pal^3, Lys^5, D-Pal(iPr)^6, Lys(iPr)^8, D-Ala^10-LHRH.4TFA [Compound 3548]",6/8@1 μg
21,"Ac-D-Nal^1, 4-Cl-D-Phe^2, D-Pal^3, N-Me-Ala^5, D-Pal(iPr)^6, Lys(iPr)^8, D-Ala^10-LHRH.2TFA [Compound 3757]",7/8@1.0
22,"Ac-D-Nal^1, 4-Cl-D-Phe^2, D-Pal^3, N-Me-Tyr^5, D-Lys(Ac)^6, Lys(iPr)^8, D-Ala^10-LHRH.TFA [Compound 3829]",8/8@1.0

row,Substance,AO activity (AOA): rats which ovulate / rats treated
1,"Ac-D-Nal^1, 4-Cl-D-Phe^2, D-Pal^3, Pal^5, D-Cit^6, Lys(iPr)^8, D-Ala^10-LHRH.TFA [Compound 3432]",7/8@1 μg
2,"Ac-D-Nal^1, 4-Cl-D-Phe^2, D-Pal^3, Ser^5, D-Pal(iPr)^6, Lys(iPr)^8, D-Ala^10-LHRH.2TFA [Compound 3743]",8/8@1.0
3,"Ac-D-Nal^1, 4-Cl-D-Phe^2, D-Pal^3,D-Lys(Mts)^6, Lys(iPr)^8, D-Ala^10-LHRH.TFA [Compound 3761]",7/8@1.0
4,"Ac-D-Nal^1, 4-Cl-D-Phe^2, D-Phe^2, D-Pal^3, Ala^5, D-Pal(iPr)^6, Lys(iPr)^8, D-Ala^10-LHRH.2TFA [Compound 3756]",6/8@1.0
5,"Ac-D-Nal^1, 4-Cl-D-Phe^2, D-Trp^3, D-Arg^6, Lys(COCH2Br)^8, D-Ala^10-LHRH.TFA [Compound 3926]",6/8@1.0
6,"Ac-D-Nal^1, 4-Cl-D-Phe^2, D-Trp^3, D-Arg^6, Met^8, D-Ala^10-LHRH.TFA [Compound 3880]",8/8@1.0
7,"Ac-D-Nal^1, 4-Cl-D-Phe^2, D-Trp^3, D-Met(S^+CH2C6H5)^6, D-Ala^10-LHRH.2TFA [Compound 3961]",3/8@1.00
8,"Ac-D-Nal^1, 4-Cl-D-Phe^2, D-Trp^3, D-Met(S^+CH2—CH═CH2)^6, D-Ala^10-LHRH.2TFA [Compound 3984]",3/8@1.00
9,"Ac-D-Nal^1, 4-Cl-D-Phe^2, D-Trp^3, D-Met^6, D-Ala^10-LHRH.TFA [Compound 3881]",7/8@1.0
10,"Ac-D-Nal^1, C^αMe-4Cl-Phe^2, D-Pal^3, N^αMe-Tyr^5, D-Pal(iPr)^6, Lys(iPr)^8, D-Ala^10-LHRH.TFA [Compound 3541]",1/8@1 μg
11,"Ac-D-Pal^1, 4-Cl-D-Phe^2, D-Pal^3, D-Pal(iPr)^6, Lys(iPr)^8, D-Ala^10-LHRH.2TFA [Compound 3804]",8/8@1.0
12,"Ac-D-Qal^1, 4-Cl-D-Phe^2, D-Pal^3, D-Lys(Ac)^6, Lys(iPr)^8, D-Ala^10-LHRH.TFA [Compound 3740]",6/8@1.0
13,"Ac-D-Qal^1, 4-Cl-D-Phe^2, D-Pal^3, D-Lys(Dodac)^6, Lys(iPr)^8, D-Ala^10-LHRH.TFA [Compound 3742]",6/8@1.0
14,"Ac-D-Qal^1, 4-Cl-D-Phe^2, D-Pal^3, D-Lys(Gulonyl)^6, Lys(iPr)^8, D-Ala^10-LHRH.TFA [Compound 3785]",7/8@1.0
15,"Ac-D-Qal^1, 4-Cl-D-Phe^2, D-Pal^3, D-Lys(Imdac)^6, Lys(iPr)^8, D-Ala^10-LHRH.TFA [Compound 3800]",7/8@1.0
16,"Ac-D-Qal^1, 4-Cl-D-Phe^2, D-Pal^3, D-Lys(Onic)^6, Lys(iPr)^8, D-Ala^10-LHRH.TFA [Compound 3801]",8/8@1.0
17,"Ac-D-Qal^1, 4-Cl-D-Phe^2, D-Pal^3, D-Lys(Otac)^6, Lys(iPr)^8, D-Ala^10-LHRH.TFA [Compound 3802]",5/8@1.0
18,"Ac-D-Qal^1, 4-Cl-D-Phe^2, D-Pal^3, D-Lys(Ppic)^6, Lys(iPr)^8, D-Ala^10-LHRH.TFA [Compound 3787]",7/8@1.0
19,"Ac-D-Qal^1, 4-Cl-D-Phe^2, D-Pal^3, D-Lys(pGlu)^6, Lys(iPr)^8, D-Ala^10-LHRH.TFA [Compound 3723]",7/8@1.0
20,"Ac-N^αMe-D-Nal^1, 4-Cl-D-Phe^2, D-Pal^3, D-Cit^6, Lys(iPr)^8, D-Ala^10-LHRH.TFA [Compound 3442]",7/8@1 μg
21,"Ac-Sar^1, 4-Cl-D-Phe^2, 1-1-Nal^3, D-Pal(Bzl)^6, Lys(iPr)^8,D-Ala^10-LHRH.2TFA [Compound 3769]",6/8@1.0

# Same assay, conditions: dose 2 μg per rat
row,Substance,AO activity (AOA): rats which ovulate / rats treated
1,"Ac-D-Nal^1, 4-Cl-D-Phe^2, D-Trp^3, D-Met(S^+CH2C6H5)^6, D-Ala^10-LHRH.2TFA [Compound 3961]",4/8@2.00

# Same assay, conditions: dose 5 μg per rat
row,Substance,AO activity (AOA): rats which ovulate / rats treated
1,"Ac-D-Nal^1, 4-Cl-D-Phe^2, D-Pal^3, His^5, D-Arg^6, Trp^7, Orn^8, D-Ala^10-LHRH.TFA [Compound 3853]",0/8@5.0
2,"Ac-D-Nal^1, 4-Cl-D-Phe^2, D-Pal^3, Lys(iPr)^5, D-His^6, Trp^7, Orn^8, D-Ala^10-LHRH.TFA [Compound 3852]",8/8@5.0
3,"Ac-L-(or D)-9-anthryl-Ala^1, 4-Cl-D-Phe^2, D-Pal^3, D-Cit^6-Lys(iPr)^8, D-Ala^10-LHRH.TFA [Compound 3367]",7/8@5 μg

# Same assay, conditions: rat, in vivo
row,Substance,"AO activity (AOA), in words"
1,"Ac-D-Nal^1, 4-Cl-D-Phe^2, D-Trp^3, D-Lys(COCH2Br)^6, D-Ala^10-LHRH.TFA [Compound 3948]",low activity
